System: mold growth on cheese chunks
Assay: Mold growth on refrigerated cheese chunks exposed to ambient air after surface treatment
Experimental: In one particular embodiment, the material applied comprises a suspension of natamycin in an aqueous saline solution. […] In a preferred embodiment of the invention, the process applies an average surface concentration of about 1.0 to 1.1 μg/cm^2 to ensure that an adequate concentration is applied over substantially the entire exterior surface. Application of natamycian at these average surface concentrations with the apparatus of the invention ensures that substantially all of the cheese chunk surface area has a surface concentration of at least about 0.5 μg/cm^2.
The efficacy of an antimycotic agent may be measured in terms of the number of days during which mold growth is retarded in treated samples, relative to untreated control samples. Generally, if mold growth is retarded by 45 days or more, the antimycotic may be considered effective. The absolute length of time during which mold growth is delayed depends on the mold load in the ambient air, in addition to effects of antimycotic agents.

C[C@@H]1C/C=C/C=C/C=C/C=C/[C@H](O[C@@H]2O[C@H](C)[C@@H](O)[C@H](N)[C@@H]2O)C[C@@H]2O[C@](O)(C[C@@H](O)C[C@H]3O[C@@H]3/C=C/C(=O)O1)C[C@H](O)[C@H]2C(=O)O [natamycin]
number of days by which mold growth is retarded (relative to untreated control samples) (preferred embodiment (average surface concentration about 1.0 to 1.1 μg/cm^2), refrigerated at 35° F. to 45° F., exposed to ambient air): over 45 days | time cheese chunks remained mold-free (preferred embodiment, in some cases, refrigerated at 35° F. to 45° F., exposed to ambient air): over 200 days | surface concentration level found effective in preventing mold growth (refrigerated cheese chunks exposed to ambient air for extended periods, natamycin suspension in aqueous saline solution applied by spray): about 0.5 μg/cm^2

Source: patent US6589580B1, “Method and apparatus for application of surface treatment to food products” (Kraft Foods Holdings, Inc., priority 1999, dated 2003)
